Columns and labels:
[1] = Drug metabolism in human intestinal microsomes assessed as formation of scutellarein-6-O-glucuronide after 7 mins by HPLC/UV analysis; format: ADME, Intestine, Microsome
[2] = Ratio of Vmax to Km for drug metabolism in rat intestinal microsomes assessed as formation of scutellarein-7-O-glucuronide after 7 mins by HPLC/UV analysis; format: ADME, Intestine, Microsome
Liver microsome [3] = assay: Ratio of Vmax to Km for drug metabolism in rat liver microsomes assessed as formation of scutellarein-7-O-glucuronide after 7 mins by HPLC/UV analysis; format: ADME
Liver microsome [4] = assay: Drug metabolism in human liver microsomes assessed as formation of scutellarein-6-O-glucuronide after 7 mins by HPLC/UV analysis; format: ADME
[5] = target: T1, UDP-glucuronosyltransferase 1A1 (Homo sapiens, UniProt P22309); assay: Drug metabolism assessed as human recombinant UGT1A1-mediated formation of scutellarein-7-O-glucuronide after 25 mins by HPLC/UV analysis; format: ADME
T1 sequence (P22309 whole entry): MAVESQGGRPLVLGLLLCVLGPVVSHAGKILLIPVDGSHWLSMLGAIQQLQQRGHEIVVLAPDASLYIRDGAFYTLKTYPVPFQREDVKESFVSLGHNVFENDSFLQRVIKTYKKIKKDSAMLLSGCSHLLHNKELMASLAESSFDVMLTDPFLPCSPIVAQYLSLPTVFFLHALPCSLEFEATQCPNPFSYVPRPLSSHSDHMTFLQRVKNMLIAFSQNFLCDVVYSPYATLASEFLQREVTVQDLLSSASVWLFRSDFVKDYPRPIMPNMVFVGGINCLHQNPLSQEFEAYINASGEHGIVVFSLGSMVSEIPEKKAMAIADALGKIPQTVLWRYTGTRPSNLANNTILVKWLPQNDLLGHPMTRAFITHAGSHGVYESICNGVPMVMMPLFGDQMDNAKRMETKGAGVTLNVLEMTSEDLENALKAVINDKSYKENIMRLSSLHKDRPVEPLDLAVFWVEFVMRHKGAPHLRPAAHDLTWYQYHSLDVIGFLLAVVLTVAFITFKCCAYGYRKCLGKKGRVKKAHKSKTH

Liver microsome [6] = assay: Drug metabolism in human liver microsomes assessed as formation of scutellarein-7-O-glucuronide after 7 mins by HPLC/UV analysis; format: ADME
Liver microsome [7] = assay: Ratio of Vmax to Km for drug metabolism in human liver microsomes assessed as formation of scutellarein-6-O-glucuronide after 7 mins by HPLC/UV analysis; format: ADME
Liver microsome [8] = assay: Drug metabolism in rat liver microsomes assessed as formation of scutellarein-7-O-glucuronide after 7 mins by HPLC/UV analysis; format: ADME
[9] = Drug metabolism in rat intestinal microsomes assessed as formation of scutellarein-7-O-glucuronide after 7 mins by HPLC/UV analysis; format: ADME, Intestine, Microsome
[10] = Ratio of Vmax to Km for drug metabolism in human intestinal microsomes assessed as formation of scutellarein-6-O-glucuronide after 7 mins by HPLC/UV analysis; format: ADME, Intestine, Microsome
Liver microsome [11] = assay: Ratio of Vmax to Km for drug metabolism in human liver microsomes assessed as formation of scutellarein-7-O-glucuronide after 7 mins by HPLC/UV analysis; format: ADME
[12] = Ratio of Vmax to Km for drug metabolism in human intestinal microsomes assessed as formation of scutellarein-7-O-glucuronide after 7 mins by HPLC/UV analysis; format: ADME, Intestine, Microsome
[13] = Drug metabolism in human intestinal microsomes assessed as formation of scutellarein-7-O-glucuronide after 7 mins by HPLC/UV analysis; format: ADME, Intestine, Microsome
Liver microsome [14] = assay: Ratio of Vmax to Km for drug metabolism in rat liver microsomes assessed as formation of scutellarein-6-O-glucuronide after 7 mins by HPLC/UV analysis; format: ADME
Liver microsome [15] = assay: Drug metabolism in rat liver microsomes assessed as formation of scutellarein-6-O-glucuronide after 7 mins by HPLC/UV analysis; format: ADME

Question: For `O=c1cc(-c2ccc(O)cc2)oc2cc(O)c(O)c(O)c12` [SCUTELLAREIN], which Km [1] is on record?
Answer: The Km was 7.06 µM.

Question: And the Vmax [1]?
Answer: The Vmax was 2.41 nmol/min/mg.

Question: And the Vmax/Km [2]?
Answer: The Vmax/Km was 1924 µL/min/mg.

Question: And the Vmax/Km (Liver microsome [3])?
Answer: The Vmax/Km was 1361 µL/min/mg.

Question: What about the Km (Liver microsome [4]) of the same compound?
Answer: The Km was 16.2 µM.

Question: And the Vmax (Liver microsome [4])?
Answer: The Vmax was 1.59 nmol/min/mg.

Question: And the Ki [5]?
Answer: The Ki was 41.3 µM.

Question: And the Km (Liver microsome [6])?
Answer: Its Km is 6.32 µM.

Question: And the Vmax (Liver microsome [6])?
Answer: Its Vmax is 8.64 nmol/min/mg.

Question: What about the Vmax/Km (Liver microsome [7]) of the same compound?
Answer: Its Vmax/Km is 97.9 µL/min/mg.

Question: And the Km (Liver microsome [8])?
Answer: Its Km is 7.37 µM.

Question: What about the Vmax (Liver microsome [8]) of the same compound?
Answer: The Vmax was 10 nmol/min/mg.

Question: What about the Km [9] of the same compound?
Answer: The Km was 9 µM.

Question: And the Vmax [9]?
Answer: The Vmax was 17.3 nmol/min/mg.

Question: And the Vmax/Km [10]?
Answer: Its Vmax/Km is 342 µL/min/mg.

Question: And the Vmax/Km (Liver microsome [11])?
Answer: Its Vmax/Km is 1368 µL/min/mg.

Question: What about the Vmax/Km [12] of the same compound?
Answer: Its Vmax/Km is 924 µL/min/mg.

Question: And the Ki [13]?
Answer: Its Ki is 401 µM.

Question: And the Km ([13]; human, microsomes, 7 min)?
Answer: The Km was 5.9 µM.

Question: What about the Vmax ([13]; human, microsomes, 7 min) of the same compound?
Answer: The Vmax was 5.45 nmol/min/mg.

Question: What about the Vmax/Km (Liver microsome [14]) of the same compound?
Answer: The Vmax/Km was 577 µL/min/mg.

Question: What about the Km (Liver microsome [15]) of the same compound?
Answer: Its Km is 2.86 µM.

Question: And the Vmax (Liver microsome [15])?
Answer: Its Vmax is 1.65 nmol/min/mg.

From ChEMBL document CHEMBL3526031, “Mechanistic studies on the absorption and disposition of scutellarin in humans: selective OATP2B1-mediated hepatic uptake is a likely key determinant for its unique pharmacokinetic characteristics” (Drug Metab Dispos, 2012)
